The values that follow come from article PMC12336824 (The Journal of Biological Chemistry, 2025).

For one series, the system named is terminal oxidases. Format: biochemical. The conditions noted are these: 50 μM inhibitor, 50 μM UQ-1.
The subject of series [1] is NDH-2. The class given is biochemical. The conditions noted are these: 50 μM.
For series [2], the system named is V. cholerae O395. Description: microbe, parasite or virus in culture. The class given is cell-based. The conditions noted are these: for effect on growth of V. cholerae: 50 μM, midlogarithmic phase (8 h), LB medium; for MIC50: 8 h.
The test system of series [3] is NADH dehydrogenases of V. cholerae membranes. The class given is biochemical. The conditions noted are these: 50 μM, 200 μM NADH.
The next series relates to V. cholerae 2010EL-1786. Description: microbe, parasite or virus in culture. The class given is cell-based. The conditions noted are these: Vibrio cholerae.
The conditions of series [4]: human.
The conditions of series [5]: cited from earlier work.
The subject of the next series is V. cholerae 2012EL-2176. As to the kind of experiment: microbe, parasite or virus in culture. Format: cell-based. The conditions noted are these: Vibrio cholerae.
Another series relates to V. cholerae wildtype. The arrangement: species or system mice. The conditions noted are these: mouse, in vivo.
For series [6] the following is noted: single oral dose 25 mg/kg, M. tuberculosis infection model ref 31; cited from earlier work.
Series [7] relates to wildtype V. cholerae membranes. The class given is biochemical. The conditions noted are these: 50 μM.
Series [8] has as its system V. cholerae O395. As to the kind of experiment: In vitro infection of T84 human intestinal cells, CFU of adherent and planktonic bacteria. The class given is cell-based. The conditions noted are these: Vibrio cholerae.
Another series deals with V. cholerae NQR complex (Vibrio cholerae serotype O1, UniProt Q9KPS2+Q9X4Q6). As to the kind of experiment: biochemical. The conditions noted are these: read-out: inhibition of the ubiquinone reductase activity.
Series [9] concerns NDH-2. The class given is biochemical. The conditions noted are these: 50 μM. This is another data set of the same source.
For the next series, the system named is cholera toxin. Description: microbe, parasite or virus in culture. The class given is cell-based, Vibrio cholerae.

Converted amounts (≈) assume the structure as drawn. Like-named read-outs stand apart in the source and are kept apart here. Bounds are passed on as bounds.

With `CSc1ccc2c(c1)N(CCC1CCCCN1C)c1ccccc1S2` (centres unmarked) [thioridazine], the “respiratory activity with ubiquinol-1” value in the series on terminal oxidases was “not sensitive”. Besides, the “inhibition of NDH-2 activity in membranes” value in the series with NDH-2 [1] is on record as “insensitive”. Moreover, the “effect on growth of V. cholerae” value in the series with V. cholerae O395 [2] is “strong inhibitory effects”. The compound also returned an MIC50 against V. cholerae O395 [2] (Vibrio cholerae) of 27 ± 2 µM (≈ 10 µg/mL). For the same compound, in series [3], the “inhibition of respiratory activity with NADH” value is on record as “strong inhibitors”.
For orientation: inhibition means how much of the control response was suppressed. With `CC(C)/N=c1\cc2n(-c3ccc(Cl)cc3)c3ccccc3nc-2cc1Nc1ccc(Cl)cc1` [clofazimine], the MIC amounted to 16 µM (≈ 7.57 µg/mL) against V. cholerae 2010EL-1786, 16 µM (≈ 7.57 µg/mL) against V. cholerae 2012EL-2176 and 5 µM (≈ 2.37 µg/mL) against V. cholerae O395 [2] (Vibrio cholerae). The “estimated concentration that can reach the proximal section of the small intestine” value in [4] is recorded as “around 150 μM”. The “respiratory activity with ubiquinol-1” value with terminal oxidases is recorded as “not sensitive”. For the same compound, the concentration in plasma entry in [5] is on record as “submicromolar range”. Besides, the “survival of infected mice” value with V. cholerae wildtype is reported as “to the same extent as ampicillin”. Besides, the peak serum concentration in series [6] was 0.43 µg/mL. The “sensitivity of activity of wildtype membranes” value in series [7] is given as “sensitive”. The “inhibition of NDH-2 activity in membranes” value with NDH-2 [1] is on record as “insensitive”. Also, the inhibition at 30 µM in the series with V. cholerae O395 [8] (O395, T84, read-out: inhibition of the number of attached cells) is > 75%; in the series on V. cholerae O395 [8] (O395, T84, read-out: inhibition of the number of planktonic cells), > 90%; with cholera toxin (Vibrio cholerae, read-out: inhibition of cholera toxin production), 95%. Further, on V. cholerae NQR complex, the inhibition at 50 µM was 95%. Moreover, the “sensitivity of NADH-dependent ubiquinol reductase activity of Δnqr membranes” value in the series with NDH-2 [9] is “insensitive”. Further, the “effect on growth of V. cholerae” value with V. cholerae O395 [2] is “strong inhibitory effects”. The MIC50 with V. cholerae O395 [2] (Vibrio cholerae) was 3.4 ± 0.2 µM (≈ 1.61 µg/mL). For the same compound, the “inhibition of cholera toxin production” value in the series with cholera toxin (30 µM) was 92%. Further, the “inhibition of respiratory activity with NADH” value in [3] is on record as “strong inhibitors”.
In the case of `CN1CCN(CCCN2c3ccccc3Sc3ccc(C(F)(F)F)cc32)CC1` [trifluoperazine], the inhibition at 50 µM at V. cholerae NQR complex (50 μM) lay within 20 to 40%.
The same measure, in the same setting: the figure for `OCCN1CCN(CCCN2c3ccccc3Sc3ccc(Cl)cc32)CC1` [perphenazine] is 20 to 40%; for `CC(CN1c2ccccc2Sc2ccccc21)N(C)C` (centres unmarked) [promethazine] it is 20 to 40%.
As for `CN1CCN(CCCN2c3ccccc3Sc3ccc(Cl)cc32)CC1` [prochlorperazine], the “effect on growth of V. cholerae” value with V. cholerae O395 [2] is given as “strong inhibitory effects”. Moreover, in the series with V. cholerae O395 [2] (Vibrio cholerae), the MIC50 came out at 24 ± 3 µM (≈ 8.97 µg/mL).
Regarding `CN(C)CCCN1c2ccccc2Sc2ccc(Cl)cc21` [chlorpromazine], the inhibition at 50 µM at V. cholerae NQR complex was in the range of 20 to 40%. Besides, in the series on V. cholerae O395 [2], the “effect on growth of V. cholerae” value is recorded as “antimicrobial properties”.
Take `CC1(C)S[C@@H]2[C@H](NC(=O)[C@H](N)c3ccccc3)C(=O)N2[C@H]1C(=O)O` [ampicillin]: in the series with V. cholerae wildtype, the “survival of infected mice” value is “almost twice”.
